Measured values taken from article PMC11844072, “Novel 5,6-dichlorobenzimidazole derivatives as dual BRAFWT and BRAFV600E inhibitors: design, synthesis, anti-cancer activity and molecular dynamics simulations” (BMC Chemistry, 2025).

What was measured:
Experiment in all cases: NCI 60 single concentration growth inhibition
Format in all cases: cell-based, human
[1] = test system: UO-31; settings: UO-31, Renal cancer, 10 μM
Outline: (§1)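 For the single-dose testing, a 10 µM concentration was applied for 48 h. Adherent lines were fixed with cold TCA, stained with SRB and read at 515 nm, and the result was reported as percent growth versus untreated cells.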

[2] = test system: MALME-3M; settings: Melanoma, 10 μM
Outline: as §1

[3] = test system: IGROV1; settings: IGROV1, Ovarian cancer, 10 μM
Protocol: (§2) The synthesized dichlorobenzimidazoles 10a–p were assayed for their influence on divers cancer cell lines according to the method presented in the Additional file A.
(§3) 5. Screening of cytotoxic activity against a panel of sixty human tumor cell lines
(§4) The selected compounds by NCI were evaluated for their anticancer activity in a two-stage process. First, these compounds were screened against the full NCI 60 cell lines panel at a single high dose of 10 µM. Then, the output from the single dose screen is reported as a mean graph. […]
(§5) Assay protocol. The human tumor cell lines of the cancer screening panel are grown in RPMI 1640 medium containing 5% fetal bovine serum and 2 mM L-glutamine. For a typical screening experiment, cells are inoculated into 96 well microtiter plates in 100 µL at plating densities ranging from 5000 to 40,000 cells/well depending on the doubling time of individual cell lines. After cell inoculation, the microtiter plates are incubated at 37 °C, 5% CO 2, 95% air and 100% relative humidity for 24 h prior to addition of the experimental drugs.
(§6) After 24 h, two plates of each cell line are fixed in situ with TCA, to represent a measurement of the cell population for each cell line at the time of drug addition (Tz). The experimental drugs are solubilized in dimethyl sulfoxide at 400-fold the desired final maximum test concentration and stored frozen prior to use. At the time of drug addition, an aliquot of frozen concentrate is thawed and diluted to twice the desired final maximum test concentration with complete medium containing 50 µg/mL gentamicin. Additional four, 10-fold or ½ log serial dilutions are made to provide a total of five drug concentrations plus control.
(§7) Aliquots of […] of these different drug dilutions are added to the appropriate microtiter wells already containing […] of medium, resulting in the required final drug concentrations.
(§8) Following drug addition, the plates are incubated for an additional 48 h at 37 °C, 5% CO 2, 95% air, and 100% relative humidity. For adherent cells, the assay is terminated by the addition of cold TCA.
(§9) Cells are fixed in situ by the gentle addition of 50 µL of cold 50% (w/v) TCA (final concentration, 10% TCA) and incubated for 60 min at 4 °C. The supernatant is discarded, and the plates are washed five times with tap water and air dried. Sulforhodamine B (SRB) solution ([…]) at 0.4% (w/v) in 1% acetic acid is added to each well, and plates are incubated for 10 min at room temperature. After staining, unbound dye is removed by washing five times with 1% acetic acid and the plates are air dried. Bound stain is subsequently solubilized with 10 mM trizma base, and the absorbance is read on an automated plate reader at a wavelength of 515 nm. For suspension cells, the methodology is […]
(§10) the same except that the assay is terminated by fixing settled cells at the bottom of the wells by gently adding 50 µl of 80% TCA (final concentration, 16% TCA). Using the seven absorbance measurements [time zero, (Tz), control growth, (C), and test growth in the presence of drug at the five concentration levels (Ti)], the percentage growth is calculated at each of the drug concentrations […]
(§11) Percentage growth inhibition is calculated as: [(Ti Tz)/(C–Tz)] x 100 for concentrations for which Ti>/=Tz and [(Ti-Tz)/Tz] x 100 for concentrations for which Ti < Tz. […]
(§12) Results for each compound were reported as a mean graph of the percent growth of the treated cells when compared to the untreated control cells. There after obtaining the results for one dose assay, analysis of historical Development Therapeutics Programme (DTP) was performed and compounds which satisfies predetermined threshold inhibition criteria is selected for NCI full panel 5 dose assay.

[4] = test system: SNB-75; settings: SNB-75, CNS cancer, 10 μM
Protocol: as §2, §3, §4, §5, §6, §7, §8, §9, §10, §11, §12

[5] = test system: HT29; settings: for GI%: HT29, Colon cancer, 10 μM; for inhibition at 10 µM: Homo sapiens, HT-29, HT29, Colon cancer, read-out: GI%
Protocol: as §2, §3, §4, §5, §6, §7, §8, §9, §10, §11, §12

[6] = test system: HCC-2998; settings: HCC-2998, Colon cancer; for GI%: 10 μM; for inhibition at 10 µM: Homo sapiens, read-out: GI%
Protocol: as §2, §3, §4, §5, §6, §7, §8, §9, §10, §11, §12

[7] = test system: U251; settings: for GI%: U251, CNS cancer, 10 μM; for inhibition at 10 µM: Homo sapiens, U-251, U251, CNS cancer, read-out: GI%
Protocol: as §2, §3, §4, §5, §6, §7, §8, §9, §10, §11, §12

[8] = test system: OVCAR-3; settings: OVCAR-3, Ovarian cancer; for GI%: 10 μM; for inhibition at 10 µM: Homo sapiens, read-out: GI%
Protocol: as §2, §3, §4, §5, §6, §7, §8, §9, §10, §11, §12

[9] = test system: DU-145; settings: DU-145, Prostate cancer; for GI%: 10 μM; for inhibition at 10 µM: Homo sapiens, read-out: GI%
Protocol: as §2, §3, §4, §5, §6, §7, §8, §9, §10, §11, §12

[10] = test system: COLO 205; settings: COLO 205, Colon cancer; for GI%: 10 μM; for inhibition at 10 µM: Homo sapiens, read-out: GI%
Protocol: as §2, §3, §4, §5, §6, §7, §8, §9, §10, §11, §12

[11] = test system: NCI-H460; settings: NCI-H460, Non-small cell lung cancer; for GI%: 10 μM; for inhibition at 10 µM: Homo sapiens, read-out: GI%
Protocol: as §2, §3, §4, §5, §6, §7, §8, §9, §10, §11, §12

[12] = test system: NCI-H322M; settings: Non-small cell lung cancer, 10 μM
Protocol: as §2, §3, §4, §5, §6, §7, §8, §9, §10, §11, §12

[13] = test system: OVCAR-4; settings: OVCAR-4, Ovarian cancer; for GI%: 10 μM; for inhibition at 10 µM: Homo sapiens, read-out: GI%
Protocol: as §2, §3, §4, §5, §6, §7, §8, §9, §10, §11, §12

Row | Compound | GI% [1] [%] | GI% [2] | GI% [3] | GI% [4] | GI% [12] | inhibition at 10 µM [5] [%] | inhibition at 10 µM [6] [%] | inhibition at 10 µM [7] [%] | inhibition at 10 µM [8] [%] | inhibition at 10 µM [9] [%] | inhibition at 10 µM [10] [%] | inhibition at 10 µM [11] [%] | inhibition at 10 µM [13] [%] | other results
1 | 2-(4-((2-(2-(5,6-Dichloro-2-(4-methoxyphenyl)-1H-benzo[d]imidazol-1-yl)acetyl)hydrazono)methyl) -2-methoxyphenoxy)acetic acid [Compound 10m] | 8.63 | – (GI% < 5%) | – (GI% < 5%) | – (GI% < 5%) | – (GI% < 5%) | – | – | – | – | – | – | – | – | GI% [5]: – (GI% < 5%); GI% [6]: – (GI% < 5%); GI% [7]: – (GI% < 5%); GI% [8]: – (GI% < 5%); GI% [9]: – (GI% < 5%); GI% [10]: – (GI% < 5%); GI% [11]: – (GI% < 5%); GI% [13]: – (GI% < 5%)
2 | 2-(5-((2-(2-(5,6-Dichloro-2-(4-methoxyphenyl)-1H-benzo[d]imidazol-1-yl)acetyl)hydrazono)methyl)-2-methoxyphenoxy)acetic acid [Compound 10n] | 13.00 | – (GI% < 5%) | – (GI% < 5%) | – (GI% < 5%) | – (GI% < 5%) | – | – | – | – | – | – | – | – | GI% [5]: – (GI% < 5%); GI% [6]: – (GI% < 5%); GI% [7]: – (GI% < 5%); GI% [8]: – (GI% < 5%); GI% [9]: – (GI% < 5%); GI% [10]: – (GI% < 5%); GI% [11]: – (GI% < 5%); GI% [13]: – (GI% < 5%)
3 | 3-(4-((2-(2-(5,6-Dichloro-2-(4-methoxyphenyl)-1H-benzo[d]imidazol-1-yl)acetyl)hydrazono)methyl)phenoxy)propanoic acid [Compound 10i] | 25.68 | – (GI% < 5%) | – (GI% < 5%) | 8.33% | – (GI% < 5%) | – | – | – | – | – | – | – | – | GI% [5]: – (GI% < 5%); GI% [6]: – (GI% < 5%); GI% [7]: 7.22%; GI% [8]: – (GI% < 5%); GI% [9]: – (GI% < 5%); GI% [10]: – (GI% < 5%); GI% [11]: – (GI% < 5%); GI% [13]: – (GI% < 5%)
4 | COc1ccc(-c2nc3cc(Cl)c(Cl)cc3n2CC(=O)NN=Cc2cccc(O)c2)cc1 [Compound 10a, 2-(5,6-Dichloro-2-(4-methoxyphenyl)-1H-benzo[d]imidazol-1-yl)-N'-(3-hydroxybenzylidene)acetohydrazide] | – | – | – | – | – | 41.2 | 35.9 | 39.3 | 36.6 | 44.2 | 46 | 46.8 | 68.1 | –
5 | COc1ccc(-c2nc3cc(Cl)c(Cl)cc3n2CC(=O)NN=Cc2ccc(O)cc2)cc1 [Compound 10b, 2-(5,6-Dichloro-2-(4-methoxyphenyl)-1H-benzo[d]imidazol-1-yl)-N'-(4-hydroxybenzylidene)acetohydrazide] | – | – | – | – | – | 25.1 | 21.4 | 42.8 | 27 | 30.8 | 9.38 | 49.7 | 52.8 | –
6 | COc1ccc(-c2nc3cc(Cl)c(Cl)cc3n2CC(=O)NN=Cc2cccc(OC)c2)cc1 [Compound 10c, 2-(5,6-Dichloro-2-(4-methoxyphenyl)-1H-benzo[d]imidazol-1-yl)-N'-(3-methoxybenzylidene)acetohydrazide] | – | – | – | – | – | 5.29 | 7.72 | 26.6 | 14.4 | 23.3 | 8.17 | 23.7 | 42.1 | –
7 | COc1ccc(C=NNC(=O)Cn2c(-c3ccc(OC)cc3)nc3cc(Cl)c(Cl)cc32)cc1 [Compound 10d, 2-(5,6-Dichloro-2-(4-methoxyphenyl)-1H-benzo[d]imidazol-1-yl)-N'-(4-methoxybenzylidene)acetohydrazide] | – | – | – | – | – | 37.5 | 34.9 | 38.6 | 22.7 | 41.2 | 42.7 | 47.2 | 65 | –
8 | COc1ccc(-c2nc3cc(Cl)c(Cl)cc3n2CC(=O)NN=Cc2cccc(OCC(=O)O)c2)cc1 [Compound 10e, 2-(3-((2-(2-(5,6-Dichloro-2-(4-methoxyphenyl)-1H-benzo[d]imidazol-1-yl)acetyl)hydrazono)methyl)phenoxy)acetic acid] | 10.58 | – (GI% < 5%) | – (GI% < 5%) | – (GI% < 5%) | – (GI% < 5%) | < 5 | < 5 | < 5 | < 5 | < 5 | < 5 | < 5 | < 5 | –
9 | COc1ccc(-c2nc3cc(Cl)c(Cl)cc3n2CC(=O)NN=Cc2ccc(OCC(=O)O)cc2)cc1 [Compound 10f, 2-(4-((2-(2-(5,6-Dichloro-2-(4-methoxyphenyl)-1H-benzo[d]imidazol-1-yl)acetyl)hydrazono)methyl)phenoxy)acetic acid] | – | – | – | – | – | < 5 | < 5 | < 5 | < 5 | < 5 | < 5 | < 5 | < 5 | –
10 | COC(=O)COc1cccc(C=NNC(=O)Cn2c(-c3ccc(OC)cc3)nc3cc(Cl)c(Cl)cc32)c1 [Compound 10g, Methyl-2-(3-((2-(2-(5,6-dichloro-2-(4-methoxyphenyl)-1H-benzo[d]imidazol-1-yl)acetyl)hydrazono)methyl)phenoxy)acetate] | – | – | – | – | – | 51.7 | 44 | < 5 | < 5 | 110 | < 5 | < 5 | < 5 | –
11 | COc1ccc(-c2nc3cc(Cl)c(Cl)cc3n2CC(=O)NN=Cc2ccc(O)c(OC)c2)cc1 [Compound 10l, 2-(5,6-Dichloro-2-(4-methoxyphenyl)-1H-benzo[d]imidazol-1-yl)-N'-(4-hydroxy-3-methoxybenzylidene)acetohydrazide] | – | – | – | – | – | 13 | 18.2 | 25.8 | 28.7 | 31.8 | < 5 | 31 | 52.9 | –
